Data as given in patent US7704969B2, “Transfection complexes” (ICH Productions Limited, priority 2001, dated 2010).
Entries after “also recorded” stand apart in the source; their conditions may differ. Bridge positions count the residues as written; N and C are the ends. Ends that are not written are not given here.

Legend:
HAE cells [1] = test: Whole cell ELISA of phage binding to HAE cells; parameters: species or system human; conditions: phage sequences of Table 1a compared and ranked using a range of phage titres
Experimental: Following incubation of the phage with the HAE cells, the cells are washed and retained phage may then be detected by immunostaining. Cell specificity is assessed by comparing phage binding to target cells with phage binding to the wells on which the cells were plated and with phage binding to NIH 3T3 fibroblast control cells.
Binding of phage to tissue cultured HAE cells was investigated by whole cell ELISA. Approx. 8×10^4 HAE cells in […] Hanks Balanced Salts Solution (HBSS) were added to each well of a 96 well plate and incubated at 37° C. until cells had adhered. The cells were washed gently in HBSS before blocking by the addition of 0.5% BSA in HBSS for 30 mins. […] Bound phage were detected by the addition of horseradish peroxidase (HRP)-conjugated anti-M13 antibody diluted 1:5000 in blocking buffer for 1 hour, before washing three times in PBS and developing the ELISA with 2,2′-azino-bis(3-ethylbenzthiazoline 6-sulfonic acid) (ABTS) substrate solution and reading the absorbance on a plate-reading spectrophotometer at 405 nm. […]
Approx. […] Bound phage were detected by the addition of HRP-conjugated anti-M13 antibody diluted 1:5000 in blocking buffer for 1 hour, before washing three times in PBS, developing the ELISA with ABTS solution, and reading the absorbance at 405 nm.

HAE cells [2] = test: Luciferase reporter gene transfection of HAE cells with lipid/peptide/DNA vector complexes; type: cell-based, human
Source text: Transfection complexes were made by mixing the components in the order 1) lipid, then 2) peptide and, finally 3) DNA, followed by dilution. The vector complex suspension was applied to HAE cells and control cells. Vector complexes incorporating peptide Q ([K]16-GACLQHKSMPCG [SEQ. ID. NO.:12]) and vector complexes incorporating peptide P ([K]16-GACLPHKSMPCG [SEQ. ID. NO.:13]) were synthesised and compared with vector complexes incorporating peptide S ([K]16-GACYKHPGFLCG] [SEQ. ID. NO.:14]) which is a control peptide having the same amino acid constituents as peptide P but in a randomised order (the “scrambled control”), Peptide 12 ([K]16—XSXGACRRETAWACG [SEQ. ID. NO.:15]), a targeting peptide known to bind to alpha 5 beta 1 integrins and Peptide K ([K]16) a DNA binding moiety with no targeting ligand attached.
Transfections of HAE cells and 3T3 cells were performed in 96 well plates containing 20,000 cells plated 24 hours earlier. In the transfection vector complex, peptide to DNA charge ratios (+/−) were used at 1.5:1, 3:1 and 7:1. At physiological pH, DNA carries negative charge and the polycationic-nucleic acid binding component carries positive charge. The “charge ratio” is accordingly the ratio of the charges of the two components in the complex. The lipid component was maintained at a constant proportion, by weight, relative to DNA of 0.75:1.
Control peptide (S), consisted of the same amino acid constituents as the targeting peptide P but in a randomised order, was synthesised for incorporation into lipopolyplex formulations. Transfections of HAE and 3T3 cells were performed in 96 well plated containing 20,000 cells plated 24 h earlier. In the transfection complex, peptide to DNA charge ratios (+/−) were used at 1.5:1, 3:1 and 7:1. The lipid component was maintained at a constant proportion, by weight, relative to DNA of 0.75:1. Prior to making transfection complexes the lipid component was diluted to a concentration of 15 μg per ml, the peptide was prepared at 0.1 mg/ml and the DNA was at 20 μg per ml. All dilutions were performed with OptiMEM reduced serum tissue culture medium (Life Technologies). Transfection complexes were made by mixing of components in the order 1) lipid then 2) peptide and finally 3) DNA, then diluted with OptiMEM to a concentration relative to the DNA component of 0.25 μg DNA per 200 μl which volume was added to each well. Each group was performed in replicates of six. The vector complex suspension was then applied to cells within 5 minutes of preparation. Transfection incubations were performed at 37° C. for 4 h. Luciferase reporter gene assays in cell free extracts were performed after 48 h incubation using a kit from Promega according to the manufacturer's protocol. […]

3T3 cells = test: Luciferase reporter gene transfection of 3T3 cells; type: cell-based, mouse; conditions: FIG. 8, best peptide:DNA charge ratio, expression after 24 hours

## LPHKSMP (not fully specified (N-terminus, C-terminus)) [basis of peptide P]
HAE cells [1]
  binding affinity to HAE cells (binding strength by ELISA): highest binding affinity

## [K]16-GACLPHKSMPCG (KKKKKKKKKKKKKKKKGACLPHKSMPCG; disulfide 19-27 (inferred)) [peptide P]
HAE cells [2]; peptide P at 7:1 charge ratio vs peptide 12 at 3:1 charge ratio, luciferase
  transfection efficiency relative to peptide 12 (next best peptide): five-fold higher
HAE cells [2]; transfection assay, FIG. 3
  transfection performance relative to peptide Q: significantly better
HAE cells [2]; vector complexes, luciferase
  transfection efficiency relative to peptide K (K16, no targeting ligand): almost nine-fold higher; also recorded: almost nine-fold more efficient

## [K]16-GACLQHKSMPCG [peptide Q]
3T3 cells
  transfection efficiency relative to peptide 6: approximately 1.5 times

## [K]16-GACSERSMNFCG (KKKKKKKKKKKKKKKKGACSERSMNFCG; disulfide 19-27 (inferred))
3T3 cells
  transfection efficiency relative to peptide 6: approximately 1.5 times

## [K]16-GACYKHPGFLCG (KKKKKKKKKKKKKKKKGACYKHPGFLCG; N-terminal K16 oligolysine; Targeting peptide, see description) [peptide S, reference compound]
HAE cells [2]; in transfection complexes
  transfection performance of peptide S relative to peptide K16: less than a tenth as good
